In PubChem BioAssay (NCI):
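Results reflect a 48-hour exposure of cells in 96-well plates to compound at five concentrations. Definition used: TGI = concentration required for complete inhibition of growth.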

Tests used:
Test in all cases: NCI anticancer screen, dose series, 48 h
786-0 renal = system: 786-0 renal
A498 renal = system: A498 renal
A549 NSCLC = system: A549 NSCLC
ACHN renal = system: ACHN renal
BT-549 breast = system: BT-549 breast
CAKI-1 renal = system: CAKI-1 renal
CCRF-CEM leukemia = system: CCRF-CEM leukemia
COLO 205 colon = system: COLO 205 colon
DU-145 prostate = system: DU-145 prostate
EKVX NSCLC = system: EKVX NSCLC
HCC-2998 colon = system: HCC-2998 colon
HCT-116 colon = system: HCT-116 colon
HCT-15 colon = system: HCT-15 colon
HL-60(TB) leukemia = system: HL-60(TB) leukemia
HOP-62 NSCLC = system: HOP-62 NSCLC
HOP-92 NSCLC = system: HOP-92 NSCLC
HS 578T breast = system: HS 578T breast
HT29 colon = system: HT29 colon
K-562 leukemia = system: K-562 leukemia
KM12 colon = system: KM12 colon
LOX IMVI melanoma = system: LOX IMVI melanoma
M14 melanoma = system: M14 melanoma
MCF7 breast = system: MCF7 breast
MDA-MB-231 breast = system: MDA-MB-231 breast
MDA-MB-435 = system: MDA-MB-435
MDA-N = system: MDA-N
MOLT-4 leukemia = system: MOLT-4 leukemia
NCI-H226 lung = system: NCI-H226 lung
NCI-H23 lung = system: NCI-H23 lung
NCI-H460 lung = system: NCI-H460 lung
NCI-H522 lung = system: NCI-H522 lung
NCI/ADR-RES ovarian = system: NCI/ADR-RES ovarian
OVCAR-3 ovarian = system: OVCAR-3 ovarian
OVCAR-4 ovarian = system: OVCAR-4 ovarian
OVCAR-5 ovarian = system: OVCAR-5 ovarian
OVCAR-8 ovarian = system: OVCAR-8 ovarian
PC-3 prostate = system: PC-3 prostate
RPMI-8226 leukemia = system: RPMI-8226 leukemia
RXF 393 renal = system: RXF 393 renal
SF-268 CNS = system: SF-268 CNS
SF-295 CNS = system: SF-295 CNS
SF-539 CNS = system: SF-539 CNS
SK-MEL-2 melanoma = system: SK-MEL-2 melanoma
SK-MEL-28 melanoma = system: SK-MEL-28 melanoma
SK-MEL-5 melanoma = system: SK-MEL-5 melanoma
SK-OV-3 ovarian = system: SK-OV-3 ovarian
SN12C renal = system: SN12C renal
SNB-75 CNS = system: SNB-75 CNS
SR leukemia = system: SR leukemia
SW-620 colon = system: SW-620 colon
T-47D breast = system: T-47D breast
TK-10 renal = system: TK-10 renal
U251 CNS = system: U251 CNS
UACC-257 melanoma = system: UACC-257 melanoma
UACC-62 melanoma = system: UACC-62 melanoma
UO-31 renal = system: UO-31 renal

Compound `O=P1(N(CCCl)CCCl)Oc2ccc(Cl)cc2Sc2c(ccc(Cl)c2Cl)O1` (stereo unspecified) has a TGI (786-0 renal) greater than 100 µM, a TGI (A498 renal) greater than 100 µM and a TGI (A549 NSCLC) of 77.1 µM. It also gave a TGI (ACHN renal) greater than 100 µM, a TGI (BT-549 breast) greater than 100 µM and a TGI (CAKI-1 renal) greater than 100 µM. For the same compound, the TGI (CCRF-CEM leukemia) was greater than 100 µM, the TGI (COLO 205 colon) was 23 µM and the TGI (DU-145 prostate) was greater than 100 µM. The TGI (EKVX NSCLC) was greater than 100 µM, the TGI (HCC-2998 colon) was greater than 100 µM and the TGI (HCT-116 colon) was 74.6 µM. It also gave a TGI (HCT-15 colon) greater than 100 µM, a TGI (HL-60(TB) leukemia) greater than 100 µM and a TGI (HOP-62 NSCLC) greater than 100 µM. For the same compound, the TGI (HOP-92 NSCLC) was 34.4 µM, the TGI (HS 578T breast) was 33.6 µM and the TGI (HT29 colon) was greater than 100 µM. The TGI (K-562 leukemia) was greater than 100 µM, the TGI (KM12 colon) was greater than 100 µM and the TGI (LOX IMVI melanoma) was greater than 100 µM. The TGI (M14 melanoma) was greater than 100 µM, the TGI (MCF7 breast) was greater than 100 µM and the TGI (MDA-MB-231 breast) was greater than 100 µM. For the same compound, the TGI (MDA-MB-435) was greater than 100 µM, the TGI (MDA-N) was greater than 100 µM and the TGI (MOLT-4 leukemia) was greater than 100 µM. The TGI (NCI-H226 lung) was 95 µM, the TGI (NCI-H23 lung) was greater than 100 µM and the TGI (NCI-H460 lung) was 33.7 µM. It also gave a TGI (NCI-H522 lung) greater than 100 µM, a TGI (NCI/ADR-RES ovarian) greater than 100 µM and a TGI (OVCAR-3 ovarian) greater than 100 µM. For the same compound, the TGI (OVCAR-4 ovarian) was greater than 100 µM, the TGI (OVCAR-5 ovarian) was greater than 100 µM and the TGI (OVCAR-8 ovarian) was greater than 100 µM. It also gave a TGI (PC-3 prostate) greater than 100 µM, a TGI (RPMI-8226 leukemia) greater than 100 µM and a TGI (RXF 393 renal) of 43.9 µM. For the same compound, the TGI (SF-268 CNS) was greater than 100 µM, the TGI (SF-295 CNS) was greater than 100 µM and the TGI (SF-539 CNS) was greater than 100 µM. The TGI (SK-MEL-2 melanoma) was 80.3 µM, the TGI (SK-MEL-28 melanoma) was greater than 100 µM and the TGI (SK-MEL-5 melanoma) was 21.5 µM. It also gave a TGI (SK-OV-3 ovarian) greater than 100 µM, a TGI (SN12C renal) greater than 100 µM and a TGI (SNB-75 CNS) of 67.3 µM. The TGI (SR leukemia) was greater than 100 µM, the TGI (SW-620 colon) was greater than 100 µM and the TGI (T-47D breast) was greater than 100 µM. The TGI (TK-10 renal) was greater than 100 µM, the TGI (U251 CNS) was greater than 100 µM and the TGI (UACC-257 melanoma) was greater than 100 µM. For the same compound, the TGI (UACC-62 melanoma) was greater than 100 µM and the TGI (UO-31 renal) was greater than 100 µM.
